From the supplement of paper PMC11424490

What was measured:
NCI-H2122 [1] = assay: combination cScore with adagrasib (Bliss gap around IC50) (%PoC); higher = stronger additive effect
How it was run: (§1)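 NCI-H2122, NCI-H358 and SW837 cells (500 or 800 per well, 384-well plates) were dosed in concentration matrices after 24 h and grown 72 h, or 144 h for SW837. CellTiter-Glo luminescence was normalised to vehicle wells as percent of control and fitted with four-parameter curves. The score averages the Bliss-independence gap (expected minus measured viability) over a field around both monotherapy IC50s, or at the top concentrations when no IC50 was reached.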

NCI-H358 [2] = assay: as above
How it was run: as §1

SW837 [3] = assay: as above
How it was run: as §1

NCI-H2122 [4] = assay: combination cScore with sotorasib (Bliss gap around IC50) (%PoC); higher = stronger additive effect
How it was run: as §1

NCI-H358 [5] = assay: as above
How it was run: as §1

SW837 [6] = assay: as above
How it was run: as §1

## CC(C)N(CCCNC(=O)Nc1ccc(C(C)(C)C)cc1)C[C@H]1O[C@@H](n2ccc3c(N)ncnc32)[C@H](O)[C@@H]1O + C=C(F)C(=O)N1CCN(c2nc(OC[C@@H]3CCCN3C)nc3c2CCN(c2cccc4cccc(Cl)c24)C3)C[C@@H]1CC#N [adagrasib]
NCI-H2122 [1]
  combination cScore with adagrasib: 19.1
NCI-H358 [2]
  combination cScore with adagrasib: 9.87
SW837 [3]
  combination cScore with adagrasib: 2.74

## CNS(=O)(=O)Nc1nccc(Cc2c(C)c3ccc(Oc4ncccn4)cc3oc2=O)c1F + C=C(F)C(=O)N1CCN(c2nc(OC[C@@H]3CCCN3C)nc3c2CCN(c2cccc4cccc(Cl)c24)C3)C[C@@H]1CC#N [adagrasib]
NCI-H2122 [1]
  combination cScore with adagrasib: 9.73
NCI-H358 [2]
  combination cScore with adagrasib: 3.4
SW837 [3]
  combination cScore with adagrasib: 3.07

## COc1ncc(-c2ccc3nccc(-c4ccnnc4)c3c2)cc1NS(=O)(=O)c1ccc(F)cc1F + C=C(F)C(=O)N1CCN(c2nc(OC[C@@H]3CCCN3C)nc3c2CCN(c2cccc4cccc(Cl)c24)C3)C[C@@H]1CC#N [adagrasib]
NCI-H2122 [1]
  combination cScore with adagrasib: 23.1
NCI-H358 [2]
  combination cScore with adagrasib: 5.98
SW837 [3]
  combination cScore with adagrasib: 4.03

## C[C@@H]1CN(CC(=O)Nc2ccc3c(c2)Cc2cccc(-c4cc(=O)cc(N5CCOCC5)o4)c2S3)C[C@H](C)O1 + C=C(F)C(=O)N1CCN(c2nc(OC[C@@H]3CCCN3C)nc3c2CCN(c2cccc4cccc(Cl)c24)C3)C[C@@H]1CC#N [adagrasib]
NCI-H2122 [1]
  combination cScore with adagrasib: 18.9
NCI-H358 [2]
  combination cScore with adagrasib: 6.62
SW837 [3]
  combination cScore with adagrasib: 3.63

## Cc1c(-c2c(-c3ccc(F)o3)sc3ncnc(O[C@H](Cc4ccccc4OCc4ccnn4CC(F)(F)F)C(=O)O)c23)ccc(OCCN2CCN(C)CC2)c1Cl + C=C(F)C(=O)N1CCN(c2nc(OC[C@@H]3CCCN3C)nc3c2CCN(c2cccc4cccc(Cl)c24)C3)C[C@@H]1CC#N [adagrasib]
NCI-H2122 [1]
  combination cScore with adagrasib: 8.13
NCI-H358 [2]
  combination cScore with adagrasib: 5.46
SW837 [3]
  combination cScore with adagrasib: 4.73

## Cc1c(Cn2c(C)nc3c(C(=O)O)cc(N4CCOCC4)cc32)cccc1C(F)(F)F + C=C(F)C(=O)N1CCN(c2nc(OC[C@@H]3CCCN3C)nc3c2CCN(c2cccc4cccc(Cl)c24)C3)C[C@@H]1CC#N [adagrasib]
NCI-H2122 [1]
  combination cScore with adagrasib: 8.98
NCI-H358 [2]
  combination cScore with adagrasib: -4.04
SW837 [3]
  combination cScore with adagrasib: -1.49

## Cc1cc(C)c(CNC(=O)c2cc(-c3ccc(N4CCNCC4)nc3)cc3c2c(C)cn3C2CCCC2)c(=O)[nH]1 + C=C(F)C(=O)N1CCN(c2nc(OC[C@@H]3CCCN3C)nc3c2CCN(c2cccc4cccc(Cl)c24)C3)C[C@@H]1CC#N [adagrasib]
NCI-H2122 [1]
  combination cScore with adagrasib: 20.3
NCI-H358 [2]
  combination cScore with adagrasib: 5.44
SW837 [3]
  combination cScore with adagrasib: -0.2

## Cc1nc(Nc2n[nH]c3c2CN(C(=O)N[C@H](CN(C)C)c2ccccc2)C3(C)C)c2sccc2n1 + C=C(F)C(=O)N1CCN(c2nc(OC[C@@H]3CCCN3C)nc3c2CCN(c2cccc4cccc(Cl)c24)C3)C[C@@H]1CC#N [adagrasib]
NCI-H2122 [1]
  combination cScore with adagrasib: 8.47
NCI-H358 [2]
  combination cScore with adagrasib: -5.91
SW837 [3]
  combination cScore with adagrasib: -0.72

## O=C(C1CC1)N1CC[C@@H](Cn2c(-c3ccc(-c4ccc5occc5c4)cc3)nc3cnccc32)C1 + C=C(F)C(=O)N1CCN(c2nc(OC[C@@H]3CCCN3C)nc3c2CCN(c2cccc4cccc(Cl)c24)C3)C[C@@H]1CC#N [adagrasib]
NCI-H2122 [1]
  combination cScore with adagrasib: 7.98
NCI-H358 [2]
  combination cScore with adagrasib: 7.72
SW837 [3]
  combination cScore with adagrasib: 7.68

## O=c1cc(-c2cccc3c2Sc2ccccc2S3)oc(N2CCOCC2)c1 + C=C(F)C(=O)N1CCN(c2nc(OC[C@@H]3CCCN3C)nc3c2CCN(c2cccc4cccc(Cl)c24)C3)C[C@@H]1CC#N [adagrasib]
NCI-H2122 [1]
  combination cScore with adagrasib: 12.4
NCI-H358 [2]
  combination cScore with adagrasib: 7.9
SW837 [3]
  combination cScore with adagrasib: 4.85

## CC1(C)CCC(c2ccc(Cl)cc2)=C(CN2CCN(c3ccc(C(=O)NS(=O)(=O)c4ccc(N[C@H](CCN5CCOCC5)CSc5ccccc5)c(S(=O)(=O)C(F)(F)F)c4)cc3)CC2)C1 [ABT-263] + C=C(F)C(=O)N1CCN(c2nc(OC[C@@H]3CCCN3C)nc3c2CCN(c2cccc4cccc(Cl)c24)C3)C[C@@H]1CC#N [adagrasib]
NCI-H2122 [1]
  combination cScore with adagrasib: 12.1
NCI-H358 [2]
  combination cScore with adagrasib: 6.81
SW837 [3]
  combination cScore with adagrasib: 30.9

## COc1cc(CCc2cc(NC(=O)c3ccc(N4CC(C)NC(C)C4)cc3)n[nH]2)cc(OC)c1 (centres undefined) [AZD4547] + C=C(F)C(=O)N1CCN(c2nc(OC[C@@H]3CCCN3C)nc3c2CCN(c2cccc4cccc(Cl)c24)C3)C[C@@H]1CC#N [adagrasib]
NCI-H2122 [1]
  combination cScore with adagrasib: 11.3
NCI-H358 [2]
  combination cScore with adagrasib: -1.38
SW837 [3]
  combination cScore with adagrasib: 5.13

## CCN(CCCOc1ccc2c(Nc3cc(CC(=O)Nc4cccc(F)c4)[nH]n3)ncnc2c1)CCOP(=O)(O)O [AZD-1152] + C=C(F)C(=O)N1CCN(c2nc(OC[C@@H]3CCCN3C)nc3c2CCN(c2cccc4cccc(Cl)c24)C3)C[C@@H]1CC#N [adagrasib]
NCI-H2122 [1]
  combination cScore with adagrasib: 12.7
NCI-H358 [2]
  combination cScore with adagrasib: 2.1
SW837 [3]
  combination cScore with adagrasib: 4.03

## CCN1CCN(Cc2ccc(Nc3ncc(F)c(-c4cc(F)c5nc(C)n(C(C)C)c5c4)n3)nc2)CC1 [Abemaciclib] + C=C(F)C(=O)N1CCN(c2nc(OC[C@@H]3CCCN3C)nc3c2CCN(c2cccc4cccc(Cl)c24)C3)C[C@@H]1CC#N [adagrasib]
NCI-H2122 [1]
  combination cScore with adagrasib: 5.55
NCI-H358 [2]
  combination cScore with adagrasib: 4.46
SW837 [3]
  combination cScore with adagrasib: 12.5

## CN(C)C/C=C/C(=O)Nc1cc2c(Nc3ccc(F)c(Cl)c3)ncnc2cc1O[C@H]1CCOC1 [Afatinib] + C=C(F)C(=O)N1CCN(c2nc(OC[C@@H]3CCCN3C)nc3c2CCN(c2cccc4cccc(Cl)c24)C3)C[C@@H]1CC#N [adagrasib]
NCI-H2122 [1]
  combination cScore with adagrasib: 11.1
NCI-H358 [2]
  combination cScore with adagrasib: 11.5
SW837 [3]
  combination cScore with adagrasib: 21.2

## COc1cc2nc(C)nc(N[C@H](C)c3cc(N)cc(C(F)(F)F)c3)c2cc1O[C@H]1CCOC1 [BI-3406 (SOSi)] + C=C(F)C(=O)N1CCN(c2nc(OC[C@@H]3CCCN3C)nc3c2CCN(c2cccc4cccc(Cl)c24)C3)C[C@@H]1CC#N [adagrasib]
NCI-H2122 [1]
  combination cScore with adagrasib: 28
NCI-H358 [2]
  combination cScore with adagrasib: 10.7
SW837 [3]
  combination cScore with adagrasib: 19.4

## Nc1cc(C(F)(F)F)c(-c2cc(N3CCOCC3)nc(N3CCOCC3)n2)cn1 [BKM120] + C=C(F)C(=O)N1CCN(c2nc(OC[C@@H]3CCCN3C)nc3c2CCN(c2cccc4cccc(Cl)c24)C3)C[C@@H]1CC#N [adagrasib]
NCI-H2122 [1]
  combination cScore with adagrasib: 12.9
NCI-H358 [2]
  combination cScore with adagrasib: 2.43
SW837 [3]
  combination cScore with adagrasib: 9.24

## Cc1nc(NC(=O)N2CCC[C@H]2C(N)=O)sc1-c1ccnc(C(C)(C)C(F)(F)F)c1 [BYL-719] + C=C(F)C(=O)N1CCN(c2nc(OC[C@@H]3CCCN3C)nc3c2CCN(c2cccc4cccc(Cl)c24)C3)C[C@@H]1CC#N [adagrasib]
NCI-H2122 [1]
  combination cScore with adagrasib: 14.3
NCI-H358 [2]
  combination cScore with adagrasib: 3.99
SW837 [3]
  combination cScore with adagrasib: 17

## COC(=O)[C@]12CCC(C)(C)C[C@H]1[C@H]1C(=O)C=C3[C@@]4(C)C=C(C#N)C(=O)C(C)(C)[C@@H]4CC[C@@]3(C)[C@]1(C)CC2 [Bardoxolone methyl] + C=C(F)C(=O)N1CCN(c2nc(OC[C@@H]3CCCN3C)nc3c2CCN(c2cccc4cccc(Cl)c24)C3)C[C@@H]1CC#N [adagrasib]
NCI-H2122 [1]
  combination cScore with adagrasib: 5.12
NCI-H358 [2]
  combination cScore with adagrasib: -4.25
SW837 [3]
  combination cScore with adagrasib: 0.43

## O=C(/C=C/c1cccc(S(=O)(=O)Nc2ccccc2)c1)NO [Belinostat] + C=C(F)C(=O)N1CCN(c2nc(OC[C@@H]3CCCN3C)nc3c2CCN(c2cccc4cccc(Cl)c24)C3)C[C@@H]1CC#N [adagrasib]
NCI-H2122 [1]
  combination cScore with adagrasib: 7.12
NCI-H358 [2]
  combination cScore with adagrasib: -4.65
SW837 [3]
  combination cScore with adagrasib: 5.49

## Cc1c(N)nc([C@H](CC(N)=O)NC[C@H](N)C(N)=O)nc1C(=O)N[C@H](C(=O)N[C@H](C)[C@@H](O)[C@H](C)C(=O)N[C@H](C(=O)NCCc1nc(-c2nc(C(=O)NCCC[S+](C)C)cs2)cs1)[C@@H](C)O)[C@@H](OC1OC(CO)C(O)C(O)C1OC1OC(CO)C(O)C(OC(N)=O)C1O)c1cnc[nH]1 (some centres undefined) [Bleomycin] + C=C(F)C(=O)N1CCN(c2nc(OC[C@@H]3CCCN3C)nc3c2CCN(c2cccc4cccc(Cl)c24)C3)C[C@@H]1CC#N [adagrasib]
NCI-H2122 [1]
  combination cScore with adagrasib: 17.2
NCI-H358 [2]
  combination cScore with adagrasib: -5.7
SW837 [3]
  combination cScore with adagrasib: 7.34

## CC(C)C[C@H](NC(=O)[C@H](Cc1ccccc1)NC(=O)c1cnccn1)B(O)O [Bortezomib] + C=C(F)C(=O)N1CCN(c2nc(OC[C@@H]3CCCN3C)nc3c2CCN(c2cccc4cccc(Cl)c24)C3)C[C@@H]1CC#N [adagrasib]
NCI-H2122 [1]
  combination cScore with adagrasib: 4.5
NCI-H358 [2]
  combination cScore with adagrasib: 0
SW837 [3]
  combination cScore with adagrasib: -1.68

## CCNC(=O)C[C@@H]1N=C(c2ccc(Cl)cc2)c2cc(OC)ccc2-n2c(C)nnc21 [iBET-762] + C=CC(=O)N1CCN(c2nc(=O)n(-c3c(C)ccnc3C(C)C)c3nc(-c4c(O)cccc4F)c(F)cc23)[C@@H](C)C1 [sotorasib]
NCI-H2122 [4]
  combination cScore with sotorasib: 22.3
NCI-H358 [5]
  combination cScore with sotorasib: 5.17
SW837 [6]
  combination cScore with sotorasib: 7.05
